Drawing on patent publication US7569562B2, “N-substituted heterocyclic sulfonamides” (Elan Pharmaceuticals, Inc., priority 2005, dated 2009), this text covers IC50 for eight compounds.

In this assay the test system is gamma secretase cleavage of NotchΔE (ZEDN1). The assay can be described thus: Notch Signaling Assay for Selective Inhibitors of Gamma Secretase (reporter gene based). The class given is cell-based. To be noted: Rattus norvegicus; assay not given; it follows the Notch signaling (4xwtCBF1 Luciferase reporter) method. An excerpt: Notch Signaling Assay for Selective Inhibitors of Gamma Secretase.
Due to the importance of Notch signaling in cell fate determination, and tissue differentiation during both development and in the adult, inhibition of Notch signaling by gamma secretase inhibitors is postulated to be a limiting factor in their therapeutic utility. In order to identify selective gamma secretase inhibitors, we have employed a reporter gene based Notch signaling assay using a constitutively active rat Notch1 construct (ZEDN1) provided by Dr Gerry Weinmaster, who is at the University of California at Los Angeles (UCLA) as described in Shawber, C., D. Nofziger, J. J. Hsieh, C. Lindsell, O. Bogler, D. Hayward and G. Weinmaster (1996). “Notch signaling inhibits muscle cell differentiation through a CBF1-independent pathway.” Development 122(12): 3765-73 in combination with the CBF1 repressible Luciferase reporter gene 4xwtCBF1Luc (Hsieh, J. J., T. Henkel, P. Salmon, E. Robey, M. G. Peterson and S. D. Hayward (1996). “Truncated mammalian Notch1 activates CBF1/RBPJk-repressed genes by a mechanism resembling that of Epstein-Barr virus EBNA2.” Mol Cell Biol 16(3): 952-9).
When 4xwtCBF1 Luciferase is co-transfected with NotchΔE (ZEDN1), γ-secretase cleavage of NotchΔE releases the Notch intracellular domain (NICD), which translocates to the nucleus and de-represses CBF1 mediated transcriptional repression, leading to transcription of the Luciferase reporter gene. Luciferase activity is easily assayed in cell extracts using commercially available kits. The activity of the reporter gene is directly correlated with gamma secretase cleavage of NotchΔE, and as such, a reduction in Luciferase activity provides a convenient measure of inhibition of gamma secretase cleavage of NotchΔE. A comparison of the IC50 values of compounds for inhibition of Notch signaling versus inhibition of β-amyloid production in 293sw cells is employed to guide in the selection of compounds that have the desired property of potent inhibition of β-amyloid synthesis with minimal inhibition of Notch Signaling.
In general terms: Reporter assays use an easily measured gene product as a stand-in for the process of interest.

Broadly, the IC50 is the concentration needed to halve the response being measured. Turning to `Cn1nnc2cc(CN([C@@H]3CCCCNC3=O)S(=O)(=O)c3ccc(Cl)s3)ccc21` [5-Chloro-thiophene-2-sulfonic acid (1-methyl-1H-benzotriazol-5-ylmethyl)-[(R)-2-oxo-azepan-3-yl]-amide], the IC50 is 100 to 1000 nM.

Regarding `O=C1NCCCC[C@H]1N(Cc1ccc(Br)cc1)S(=O)(=O)c1ccc(Cl)s1` [5-Chloro-thiophene-2-sulfonic acid (4-bromo-benzyl)-[(R)-2-oxo-azepan-3-yl]-amide], the IC50 was in the range of 100 to 1000 nM.

As to `Cc1ccc(S(=O)(=O)N(Cc2ccc(Br)cc2)[C@@H]2CCCCNC2=O)s1` [5-Methyl-thiophene-2-sulfonic acid (4-bromo-benzyl)-[(R)-2-oxo-azepan-3-yl]-amide], the IC50 is more than 1000 nM.

On to `Cn1nnc2cc(CN([C@@H]3CCCCNC3=O)S(=O)(=O)c3ccc(Cl)nc3)ccc21` [6-Chloro-pyridine-3-sulfonic acid (1-methyl-1H-benzotriazol-5-ylmethyl)-[(R)-2-oxo-azepan-3-yl]-amide], for which the IC50 was in the range of 1 to 100 nM.

As for `CC(=Cc1ccccc1)CN([C@@H]1CCCCNC1=O)S(=O)(=O)c1ccc(Cl)nc1` [6-Chloro-pyridine-3-sulfonic acid (2-methyl-3-phenyl-allyl)-[(R)-2-oxo-azepan-3-yl]-amide], the IC50 is 1 to 100 nM.

Consider `O=C1NCCCC[C@H]1N(CC=Cc1cccnc1)S(=O)(=O)c1ccc(Cl)nc1` [6-Chloro-pyridine-3-sulfonic acid [(R)-2-oxo-azepan-3-yl]-(3-pyridin-3-yl-allyl)-amide], for which the IC50 lay in the range of 1 to 100 nM.

Consider `O=C1NCCCC[C@H]1N(CC1CCCCO1)S(=O)(=O)c1ccc(Cl)nc1` (stereo partly drawn) [6-Chloro-pyridine-3-sulfonic acid [(R)-2-oxo-azepan-3-yl]-(tetrahydro-pyran-2-ylmethyl)-amide], for which the IC50 is more than 1000 nM.

As for `O=C1NCCCC[C@H]1N(Cc1ccc(Br)cc1)S(=O)(=O)c1cccnc1` [Pyridine-3-sulfonic acid (4-bromo-benzyl)-[(R)-2-oxo-azepan-3-yl]-amide], the IC50 was 100 to 1000 nM.
